The source of these data is patent US20130039856A1, “Products and Methods” (priority 2010, published 2013).

In data set [1] the test system is humans aged 60 to 81. The settings on record: cited from earlier work.
Data set [2] concerns C. elegans. The experiment in a line: C. elegans lifespan analysis on E. coli plates. The format is in vivo, Caenorhabditis elegans. The settings on record: for effect of supplementation on extended lifespan of C. elegans on ubiG mutant bacteria: Q-deficient ubiG bacteria; for effect of supplementation on extended lifespan of C. elegans on ubiG mutant bacteria / effect of supplementation on lifespan of C. elegans on control HT115(DE3) strain: test for toxic effect of supplement; for effect of supplementation on lifespan of C. elegans on control HT115(DE3) strain: control bacteria; for effect of media supplementation on C. elegans lifespan on aroD mutant bacteria: supplement 40 μg/ml (PABA 0.29 mM), glp-4(bn1), 25° C.; for increase in C. elegans lifespan: vs control. The method, then: Nematode growth media was prepared as described using 2.5 g/l soy peptone (Sigma P6713). Where indicated plates were supplemented with shikimic acid (40 μg/ml), I-phenylalanine, I-tryptophan and I-tyrosine (all at 40 μg/ml), 4-amino benzoic acid (PABA 40 μg/ml=0.29 mM), sodium folate (0.29 mM and 0.58 mM folic acid dissolved in NaOH). For the kanamycin treatment of bacteria, 80 μl of 10 mM kanamycin was added after 24 hours of bacterial growth as described. All compounds were from Sigma-Aldrich.
For all lifespans and unless indicated differently in Supplementary Table 1, survival analyses were performed by the following method: Eggs were prepared from bleaching adults to remove all microbes, and then placed onto plates containing aroD mutant bacteria. Animals were raised at 15° C. until adulthood due to the temperature sensitivity of mutant phenotypes. Gravid adulthoods were used to lay eggs onto fresh aroD mutant plates. At L3/L4 these animals were transferred to 25° C. and larvae of equivalent stage were put onto at least 5 plates of 25 worms for each condition. Animals were transferred to fresh plates after 7 and 14 days and scored for survival every 2-3 days. Lifespan data was analysed by JMP statistical software (SAS). Where relevant, statistical significance was determined using the Log-Rank and Wilcoxon tests of fitting to the Kaplan-Meier survival model.

Data set [3] concerns E. coli. As to the kind of experiment: HPLC/MS folate levels in bacteria. The data set is classed as cell-based. The settings on record: SMX-treated OP50 bacteria, duplicate experiments, FIG. 9B. An excerpt: Both the aroD mutation and treatment with SMX inhibit folate synthesis in bacteria. […] This folate species is approximately three fold less abundant in the aroD mutant compared to the control strain (in duplicate experiments, FIG. 9A) and at least 10 times less abundant in the SMX-treated OP50 bacteria compared to the untreated control (in duplicate experiments, FIG. 9B).

Data set [4] relates to C. elegans. The experiment in a line: HPLC/MS folate levels in worms. The format is in vivo. The settings on record: worms raised on OP50 bacteria treated with SMX, duplicate experiments, FIG. 9D. The source says:
Similar techniques were used to quantify levels of folates in worms, although proteinase K digestion of the worms was used to get a good extraction of folates. The most abundant folate species in C. elegans using this method of detection was 5-methyl tetrahydrofolate pentaglutamate. Worms raised on aroD bacteria had 25 to 30% less of this folate species than worms on the control bacteria (in duplicate experiments, FIG. 9C). Worms raised OP50 bacteria treated with SMX had approximately 75% less folate than worms raised on the control bacteria (in duplicate experiments, FIG. 9D).

In data set [5] the test system is E. coli. As to the kind of experiment: Effect on E. coli growth (absorbance, relative cell numbers). The format is cell-based. On the procedure:
The inventors investigated the effect of SMX on E. coli growth. Under the conditions that caused an increase in C. elegans lifespan, they scraped the E. coli from the agar plates used to culture worms after two days of growth and used absorbance to estimate relative cell numbers. 128 μg/ml SMX caused a mean effect of reducing E. coli numbers by approx 11% (+/−5%, standard error, n=4). There was no effect on growth in liquid culture with the same nutrient conditions as used for lifespan analysis (FIG. 10).

Data set [6] concerns yeast. The conditions noted are these: cited from earlier work.
For data set [7], the system named is worms. The settings on record: cited from earlier work.
Data set [8] relates to flies. The settings on record: cited from earlier work.
In data set [9] the test system is one species of fish. The settings on record: cited from earlier work.

On to `CC(C)(N)C(=O)N[C@H](COCc1ccccc1)C(=O)N1CCC2(CC1)CN(S(C)(=O)=O)c1ccccc12` [MK-677], for which the “muscle mass lost due to ageing restored” value in [1] is 20%.
`Nc1ccc(C(=O)O)cc1` [PABA, para-aminobenzoic acid]: in data set [2], the “effect of supplementation on extended lifespan of C. elegans on ubiG mutant bacteria” value is reported as “no effect”, the “effect of supplementation on lifespan of C. elegans on control HT115(DE3) strain” value was “no effect” and the “effect of media supplementation on C. elegans lifespan on aroD mutant bacteria” value is “reversed the lifespan increase completely”.
As for `Cc1cc(NS(=O)(=O)c2ccc(N)cc2)no1` [SMX, sulfamethoxazole], the “increase in C. elegans lifespan” value in [2] (16 μg/ml SMX treatment of the bacteria) was “around 24%”; in data set [2] (64 μg/ml SMX, not significantly different to 16 μg/ml), 27%; in data set [2] (128 μg/ml SMX, significantly different to 16 μg/ml (p<0.05)) it was 33%. The “effect on C. elegans lifespan” value in [2] (inhibition of the bacterial folate pathway, FIG. 6) is “lifespan can be increased”. Besides, in data set [3], the “formyl tetrahydrofolate triglutamate abundance, decrease vs untreated control” value is reported as “at least 10 times”. The “less folate (5-methyl tetrahydrofolate pentaglutamate) in worms vs worms on control bacteria” value in data set [4] is “approximately 75%”. The “reduction of E. coli numbers” value in data set [5] (128 μg/ml SMX, agar plates, two days of growth, absorbance, +/−5% standard error, n=4) is given as “approx 11%”. Further, in [5] (same nutrient conditions as lifespan analysis, FIG. 10), the “effect on E. coli growth in liquid culture” value was “no effect”.
As for `Nc1nc2ncc(CNc3ccc(C(=O)N[C@@H](CCC(=O)O)C(=O)O)cc3)nc2c(=O)[nH]1` [folate, folic acid], in data set [2], the “effect of supplementation on extended lifespan of C. elegans on ubiG mutant bacteria” value is reported as “no effect” and the “effect of supplementation on lifespan of C. elegans on control HT115(DE3) strain” value is recorded as “no effect”. In addition, in [2] (SMX plates, FIG. 8), the “effect of adding folic acid to SMX plates on C. elegans lifespan” value is “reverses the effect of SMX”. In data set [2] (doubled folate concentration (0.58 mM, 2× folate) vs 1× folate, difference not statistically significant), the “effect of folate supplementation on C. elegans lifespan on aroD mutant” value is “slightly shorter”. The “effect of folate supplementation on C. elegans lifespan extension on aroD mutant” value in data set [2] (same molar concentration as PABA (0.29 mM, 1× folate)) was “reduced the C. elegans lifespan extension substantially but not completely”.
With `Oc1ccc(C=Cc2cc(O)cc(O)c2)cc1` [resveratrol], the extension of lifespan result is “up to 60%” in [6], “up to 30%” in data set [7], “up to 30%” in data set [8] and ~60% in data set [9].
`O=C(O)C1=C[C@@H](O)[C@@H](O)[C@H](O)C1` [shikimic acid]: the “effect of media supplementation on C. elegans lifespan on aroD mutant bacteria” value in data set [2] is on record as “revert to normal”.
Still for that read-out and setting: for `N[C@@H](Cc1c[nH]c2ccccc12)C(=O)O` [tryptophan] the value was “small negative effect”.
